# Publication PMC10495264 (Nature Cell Biology, 2023)
# Values joined by “and” are separate entries in the source; they are usually repeats but may differ in a detail not shown here. Identical values can stand only once.
# Key:
# TORC1 = TORC1 activity in yeast cells, p-Sch9^T737/Sch9 immunoblot; format: cell-based, Saccharomyces cerevisiae; details: for p-Sch9(T737)/Sch9 (relative TORC1 activity), Mean: yeast, untreated = 1, n = 4, Fig. 2c
# [1] = system: FASN, ACC1 and mTOR total protein levels; test: FASN, ACC1 and mTOR total protein levels, immunoblot; format: cell-based, human
# Experimental: For standard SDS–PAGE and immunoblotting experiments, cells from a well of a 12-well plate were lysed in 250 μl of ice-cold Triton lysis buffer (50 mM Tris pH 7.5, 1% Triton X-100, 150 mM NaCl, 50 mM NaF, 2 mM Na-vanadate and 0.011 g ml^−1 β-glycerophosphate) supplemented with 1×PhosSTOP phosphatase inhibitors (cat. no. 4906837001, Roche) and 1×cOmplete protease inhibitors (cat. no. 11836153001, Roche) for 10 min on ice. The samples were clarified by centrifugation (20,000g, 15 min, 4 °C) and the supernatants were boiled in 1×SDS sample buffer (5×SDS sample buffer: 350 mM Tris–HCl pH 6.8, 30% glycerol, 600 mM DTT, 12.8% SDS and 0.12% bromophenol blue). The band intensities were quantified using the ImageJ software.
# Data in graphs are shown as the mean ± s.e.m. *P < 0.05, **P < 0.005, ***P < 0.0005. Source numerical data and unprocessed blots are provided. Source data
# Snf1 (yeast AMPK) = test: Snf1 activation in yeast cells, p-Snf1^T210/His immunoblot; format: cell-based, Saccharomyces cerevisiae; details: cerulenin 20 μM, 2 h, wt Ctrl = 1, Fig. 3h
# mTORC1 = mTORC1 activity in MCF-7 cells, p-S6K^T389/S6K immunoblot; format: cell-based, human; details: cerulenin 50 μM 2 or 4 h
# [2] = system: total protein malonylation; test: Total protein malonylation (Mal-K immunoblot) in HEK293FT/HEK293T cells; format: cell-based, human
compound,measurement,setting,value
C/C=C/C/C=C/CCC(=O)[C@H]1O[C@H]1C(N)=O [cerulenin],"p-Sch9(T737)/Sch9, Mean",TORC1,0.2682 and 0.4097
same,TORC1 activity (phosphorylation of Sch9) in vivo,"TORC1; cerulenin-treated yeast, Fig. 2a,c",strongly reduced
same,"p-Sch9(T737)/Sch9 (relative TORC1 activity), Mean",TORC1; 20 μM cerulenin 2h,0.4698
same,"p-Sch9(T737)/Sch9 (relative TORC1 activity), Mean",TORC1; 20 μM cerulenin 3h,0.1772
same,"p-Sch9(T737)/Sch9 (relative TORC1 activity), Mean",TORC1; 20 μM cerulenin 4h,0.1415
same,"FASN, ACC1 and mTOR total protein levels",[1]; 4 h cerulenin,not affected
same,"FASN/Tubulin, Mean","[1]; ED Fig. 3l, relative to DMSO",1.005
same,"ACC1/Tubulin, Mean","[1]; ED Fig. 3m, relative to DMSO",1.011
same,"mTOR/Tubulin, Mean","[1]; ED Fig. 3n, relative to DMSO",1.067
same,"p-Snf1(T210)/His (Snf1), Mean",Snf1 (yeast AMPK); acc1S1157A yeast,1.0013
same,"p-Snf1(T210)/His (Snf1), Mean",Snf1 (yeast AMPK); wt yeast,1.229
same,mTORC1 activity in MCF-7,mTORC1,downregulates
same,"Mal-K/Tubulin, Mean","[2]; ED Fig. 6c, relative to Luc",1.769
same,total protein malonylation (Mal-K immunoblot),"[2]; HEK293FT cells, cerulenin treatment",detectable increase
